Measured values as given in the NIST ThermoML archive (doi:10.1021/je1003065).

Assay: mn = molality of the nth substance listed, in mol/kg
Conditions: Liquid, Vibrating tube method

[Br-].[Li+] [lithium bromide] + CCO
Conditions | mass density [kg/m3]
348.15 K, 5002 kPa, m1 = 0.2335 | 761.71
348.15 K, 5002 kPa, m1 = 1.462 | 838.72
348.15 K, 5004 kPa, m1 = 0.9499 | 807.6
348.15 K, 5004 kPa, m1 = 2.272 | 885.02
348.15 K, 5012 kPa, m1 = 2.833 | 915.98
348.15 K, 5024 kPa, m1 = 3.368 | 943.65
348.15 K, 5412 kPa, m1 = 0.5972 | 785.83
348.15 K, 10064 kPa, m1 = 0.9499 | 812.44
348.15 K, 19957 kPa, m1 = 2.833 | 928.46
348.15 K, 19985 kPa, m1 = 0.2335 | 776.82
348.15 K, 19985 kPa, m1 = 0.9499 | 821.56
348.15 K, 20024 kPa, m1 = 1.462 | 852.51
348.15 K, 29942 kPa, m1 = 0.9499 | 830.19
348.15 K, 29985 kPa, m1 = 3.368 | 963.31
348.15 K, 39784 kPa, m1 = 0.9499 | 838.22
348.15 K, 39945 kPa, m1 = 0.5972 | 816.93
348.15 K, 39947 kPa, m1 = 0.2335 | 794.15
348.15 K, 39957 kPa, m1 = 2.833 | 943.19
348.15 K, 39978 kPa, m1 = 3.368 | 970.26
348.15 K, 40002 kPa, m1 = 1.462 | 868.51
348.15 K, 49921 kPa, m1 = 2.272 | 920.25
348.15 K, 49926 kPa, m1 = 2.833 | 949.82
348.15 K, 49927 kPa, m1 = 0.9499 | 845.97
348.15 K, 59947 kPa, m1 = 0.2335 | 809.42
348.15 K, 59956 kPa, m1 = 0.5972 | 831.96
348.15 K, 59986 kPa, m1 = 1.462 | 882.36
348.15 K, 60002 kPa, m1 = 0.9499 | 853.14
348.15 K, 60024 kPa, m1 = 3.368 | 982.97
348.15 K, 69784 kPa, m1 = 0.9499 | 859.6
348.15 K, 69784 kPa, m1 = 2.272 | 932.62
348.15 K, 70024 kPa, m1 = 2.833 | 962.07
348.15 K, 79325 kPa, m1 = 0.9499 | 865.42
348.15 K, 79924 kPa, m1 = 3.368 | 994.3
348.15 K, 79956 kPa, m1 = 1.462 | 894.65
348.15 K, 80004 kPa, m1 = 0.2335 | 822.02
348.15 K, 80021 kPa, m1 = 0.5972 | 844.82
348.15 K, 89923 kPa, m1 = 3.368 | 999.65
348.15 K, 89926 kPa, m1 = 0.2335 | 827.8
348.15 K, 89931 kPa, m1 = 2.272 | 944.08
348.15 K, 89932 kPa, m1 = 1.462 | 900.39
348.15 K, 89935 kPa, m1 = 0.9499 | 871.34
348.15 K, 89954 kPa, m1 = 2.833 | 973.13
348.15 K, 99845 kPa, m1 = 1.462 | 905.92
348.15 K, 99934 kPa, m1 = 3.368 | 1004.87
348.15 K, 99935 kPa, m1 = 0.9499 | 876.39
348.15 K, 99945 kPa, m1 = 2.272 | 949.54
348.15 K, 99957 kPa, m1 = 0.2335 | 833.35
348.15 K, 99968 kPa, m1 = 2.833 | 978.42
348.15 K, 99985 kPa, m1 = 0.5972 | 855.43
348.16 K, 10021 kPa, m1 = 2.272 | 890.16
348.16 K, 10032 kPa, m1 = 3.368 | 947.88
348.16 K, 10034 kPa, m1 = 1.462 | 843.52
348.16 K, 19902 kPa, m1 = 0.5972 | 799.98
348.16 K, 29784 kPa, m1 = 2.272 | 906.12
348.16 K, 30024 kPa, m1 = 2.833 | 936.13
348.16 K, 49923 kPa, m1 = 0.2335 | 802.07
348.16 K, 49952 kPa, m1 = 3.368 | 976.77
348.16 K, 59932 kPa, m1 = 2.272 | 926.65
348.16 K, 69784 kPa, m1 = 1.462 | 888.55
348.16 K, 70013 kPa, m1 = 0.5972 | 838.69
348.16 K, 79926 kPa, m1 = 2.833 | 967.67
348.17 K, 50201 kPa, m1 = 1.462 | 875.81
348.17 K, 69845 kPa, m1 = 0.2335 | 816.09
353.09 K, 80053 kPa, m1 = 1.462 | 891.89
353.1 K, 9980 kPa, m1 = 1.462 | 839.5
353.1 K, 19703 kPa, m1 = 1.462 | 848.5
353.1 K, 29947 kPa, m1 = 1.462 | 857.25
353.1 K, 39836 kPa, m1 = 1.462 | 865.06
353.1 K, 49993 kPa, m1 = 1.462 | 872.5
353.1 K, 60279 kPa, m1 = 1.462 | 879.53
353.1 K, 69928 kPa, m1 = 1.462 | 885.72
353.1 K, 89979 kPa, m1 = 1.462 | 897.68
353.1 K, 99915 kPa, m1 = 1.462 | 903.29
353.11 K, 5043 kPa, m1 = 1.462 | 834.64
353.13 K, 1217 kPa, m1 = 1.462 | 830.74
353.13 K, 5143 kPa, m1 = 0.5972 | 781.1
353.13 K, 10028 kPa, m1 = 2.272 | 886.04
353.13 K, 20124 kPa, m1 = 2.272 | 895.23
353.13 K, 29947 kPa, m1 = 2.272 | 902.89
353.13 K, 89945 kPa, m1 = 0.2335 | 824.73
353.13 K, 99992 kPa, m1 = 2.272 | 946.74
353.14 K, 9986 kPa, m1 = 2.833 | 916.2
353.14 K, 19985 kPa, m1 = 0.2335 | 772.17
353.14 K, 20259 kPa, m1 = 0.5972 | 796.52
353.14 K, 29993 kPa, m1 = 0.5972 | 804.77
353.14 K, 39486 kPa, m1 = 2.272 | 909.8
353.14 K, 49965 kPa, m1 = 2.833 | 946.54
353.14 K, 49994 kPa, m1 = 2.272 | 916.93
353.14 K, 60014 kPa, m1 = 2.272 | 924.01
353.14 K, 69979 kPa, m1 = 2.272 | 929.91
353.14 K, 80071 kPa, m1 = 2.272 | 936.01
353.14 K, 89925 kPa, m1 = 2.833 | 970.1
353.14 K, 89993 kPa, m1 = 2.272 | 941.4
353.15 K, 1023 kPa, m1 = 0.2335 | 752.56
353.15 K, 1302 kPa, m1 = 2.833 | 908.32
353.15 K, 1405 kPa, m1 = 0.9499 | 799.45
353.15 K, 5002 kPa, m1 = 0.2335 | 756.87
353.15 K, 5015 kPa, m1 = 2.833 | 911.75
353.15 K, 5074 kPa, m1 = 0.9499 | 803.32
353.15 K, 9985 kPa, m1 = 0.9499 | 808.32
353.15 K, 10021 kPa, m1 = 0.2335 | 762.65
353.15 K, 19924 kPa, m1 = 0.9499 | 817.86
353.15 K, 19927 kPa, m1 = 2.833 | 924.6
353.15 K, 29784 kPa, m1 = 0.9499 | 826.6
353.15 K, 29974 kPa, m1 = 0.2335 | 781.57
